Experimental data from patent publication US10106515B2, “1-(cyclopent-2-en-1-yl)-3-(2-hydroxy-3-(arylsulfonyl)phenyl)urea derivatives as CXCR2 inhibitors” (GLAXOSMITHKLINE INTELLECTUAL PROPERTY DEVELOPMENT LIMITED, priority 2014, dated 2018).
Structures can show the parent of a compound that is named as a salt.

Molecular target: T1, recombinant human CXCR2 (Homo sapiens, UniProt P25025)
T1 construct: TEV protease site; Gal4-VP16 transcription factor
T1 sequence (P25025 1-360): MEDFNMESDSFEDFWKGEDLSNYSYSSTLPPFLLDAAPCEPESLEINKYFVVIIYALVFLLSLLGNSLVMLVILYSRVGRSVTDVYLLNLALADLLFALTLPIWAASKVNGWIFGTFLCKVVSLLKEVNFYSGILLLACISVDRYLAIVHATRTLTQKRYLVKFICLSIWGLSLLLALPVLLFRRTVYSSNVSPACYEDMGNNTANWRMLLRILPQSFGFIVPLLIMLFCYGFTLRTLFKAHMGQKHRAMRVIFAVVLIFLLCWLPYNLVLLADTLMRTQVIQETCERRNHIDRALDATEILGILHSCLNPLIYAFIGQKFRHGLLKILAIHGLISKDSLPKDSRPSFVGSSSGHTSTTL
Experiment: CXCR2 Tango assay
Format: cell-based
Conditions: mean pIC50 of multiple test results; stimulated with 80 nM hCXCL1; reporter gene blue/green emission ratio; read-out: pIC50 (CXCR2 Tango assay) (converted)
Method in brief: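 Mean pIC50 comes from sigmoidal fits of the blue/green (460/530 nm) CCF4-AM ratio, normalized between hCXCL1-stimulated and DMSO controls. Compounds in 10-point dose response were incubated overnight at 37 °C with recombinant human CXCR2 Tango cells (~10,000/well) and 80 nM hCXCL1, with reporter read-out via arrestin-TEV release of Gal4-VP16.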

| Compound | IC50 |
| --- | --- |
| CC1=CCCC1NC(=O)Nc1ccc(Cl)c(S(=O)(=O)N2CCCC2)c1O (stereo not drawn) [Compound 116, 1-(4-chloro-2-hydroxy-3-(pyrrolidin-1-ylsulfonyl)phenyl)-3-(2-methylcyclopent-2-en-1-yl)urea] | ≤ 10 nM |
| CC1=CCCC1NC(=O)Nc1ccc(Cl)c(S(=O)(=O)N2CCn3ccnc3C2)c1O (stereo not drawn) [Compound 117, 1-(4-chloro-3-((5,6-dihydroimidazo [1,2-a]pyrazin-7(8H)-yl)sulfonyl)-2-hydroxyphenyl)-3-(2-methylcyclopent-2-en-1-yl)urea] | ≤ 10 nM |
| CC1=CCCC1NC(=O)Nc1ccc(Cl)c(S(=O)(=O)N2CCOCC2)c1O (stereo not drawn) [Compound 118, 1-(4-chloro-2-hydroxy-3-(morpholinosulfonyl)phenyl)-3-(2-methylcyclopent-2-en-1-yl)urea] | ≤ 10 nM |
| CCC1=CCCC1NC(=O)Nc1ccc(Cl)c(S(=O)(=O)C(C)C)c1O (stereo not drawn) [Compound 120, 1-(4-chloro-2-hydroxy-3-(isopropylsulfonyl)phenyl)-3-(2-ethylcyclopent-2-en-1-yl)urea] | ≤ 10 nM |
| CCN(CC)S(=O)(=O)c1c(Cl)ccc(NC(=O)NC2CCC=C2C)c1O (stereo not drawn) [Compound 121, 6-chloro-N,N-diethyl-2-hydroxy-3-(3-(2-methylcyclopent-2-en-1-yl)ureido)benzene-sulfonamide] | ≤ 10 nM |
| CCO[C@H]1C[C@@H](S(=O)(=O)c2c(Cl)ccc(NC(=O)N[C@@H]3CCC=C3C)c2O)C1 [Compound 124, (R)-1-(4-chloro-3-((cis-3-ethoxycyclobutyl)sulfonyl)-2-hydroxyphenyl)-3-(2-methylcyclopent-2-en-1-yl)urea] | ≤ 1 nM |
| CC1=CCCC1NC(=O)Nc1ccc(Cl)c(S(=O)(=O)[C@H]2CC[C@@H](N(C)C)CC2)c1O (stereo partly drawn) [Compound 129, 1-(4-chloro-3-(((1s,4s)-4-(dimethylamino)cyclohexyl)sulfonyl)-2-hydroxyphenyl)-3-(2-methylcyclopent-2-en-1-yl)urea, trifluoroacetic acid salt] | ≤ 1 nM |
| CC1=CCCC1NC(=O)Nc1ccc(Cl)c(S(=O)(=O)N(C)C)c1O (stereo not drawn) [Compound 137, 6-chloro-2-hydroxy-N,N-dimethyl-3-(3-(2-methylcyclopent-2-en-1-yl)ureido)benzene-sulfonamide] | ≤ 10 nM |
| O=C(O)C(F)(F)F.[2H]C([2H])([2H])N1CCC(C)(S(=O)(=O)c2c(Cl)ccc(NC(=O)N[C@@H]3CCC=C3C)c2O)CC1 [Compound 139, (R)-1-(4-chloro-2-hydroxy-3-((4-methyl-1-(d3-methyl)piperidin-4-yl)sulfonyl)phenyl)-3-(2-methylcyclopent-2-en-1-yl)urea, trifluoroacetic acid salt] | ≤ 10 nM |
| CC1=CCCC1NC(=O)Nc1ccc(Cl)c(S(=O)(=O)C2CC3(CCN(C)CC3)C2)c1O (stereo not drawn) [Compound 140, 1-(4-chloro-2-hydroxy-3-((7-methyl-7-azaspiro[3.5]nonan-2-yl)sulfonyl)phenyl)-3-(2-methylcyclopent-2-en-1-yl)urea] | ≤ 10 nM |
| CO[C@@H]1COCC[C@@H]1S(=O)(=O)c1c(Cl)ccc(NC(=O)N[C@@H]2CCC=C2C)c1O [Compound 145, 1-(4-chloro-2-hydroxy-3-(((3R,4S)-3-methoxytetrahydro-2H-pyran-4-yl)sulfonyl)phenyl)-3-((R)-2-methylcyclopent-2-en-1-yl)urea] | ≤ 10 nM |
| CO[C@H]1C[C@@H](S(=O)(=O)c2c(Cl)ccc(NC(=O)NC3C=CCC3)c2O)C1 (stereo partly drawn) [Compound 147, 1-(4-chloro-2-hydroxy-3-((cis-3-methoxycyclobutyl)sulfonyl)phenyl)-3-(cyclopent-2-en-1-yl)urea] | ≤ 10 nM |
| COC[C@H]1C[C@H](S(=O)(=O)c2c(Cl)ccc(NC(=O)NC3CCC=C3C)c2O)C1 (stereo partly drawn) [Compound 153, 1-(4-chloro-2-hydroxy-3-((trans-3-(methoxymethyl)cyclobutyl)sulfonyl)phenyl)-3-(2-methylcyclopent-2-en-1-yl)urea] | ≤ 10 nM |
| COC1CCN(S(=O)(=O)c2c(Cl)ccc(NC(=O)NC3CCC=C3C)c2O)CC1 (stereo not drawn) [Compound 154, 1-(4-chloro-2-hydroxy-3-((4-methoxypiperidin-1-yl)sulfonyl)phenyl)-3-(2-methylcyclopent-2-en-1-yl)urea] | ≤ 10 nM |
| COCC(C)(C)S(=O)(=O)c1c(Cl)ccc(NC(=O)NC2CCC=C2C)c1O (stereo not drawn) [Compound 156, 1-(4-chloro-2-hydroxy-3-((1-methoxy-2-methylpropan-2-yl)sulfonyl)phenyl)-3-(2-methylcyclopent-2-en-1-yl)urea] | ≤ 10 nM |

Now from value to molecule:

| IC50 | Compound |
| --- | --- |
| ≤ 10 nM | CCO[C@H]1C[C@@H](S(=O)(=O)c2c(Cl)ccc(NC(=O)N[C@@H]3CCC=C3Cl)c2O)C1 [Compound 125, 1-(4-chloro-3-(((1s,3s)-3-ethoxycyclobutyl)sulfonyl)-2-hydroxyphenyl)-3-(2-chlorocyclopent-2-en-1-yl)urea] |
| ≤ 1 nM | CC1=CCC[C@H]1NC(=O)Nc1ccc(Cl)c(S(=O)(=O)C2CC[C@@H](N(C)C)C2)c1O (stereo partly drawn) [Compound 127, cis-1-(4-chloro-3-((3-(dimethylamino)cyclopentyl)sulfonyl)-2-hydroxyphenyl)-3-((R)-2-methylcyclopent-2-en-1-yl)urea] |
| ≤ 1 nM | CN(C)[C@H]1CC[C@@H](S(=O)(=O)c2c(Cl)ccc(NC(=O)NC3CCC=C3Cl)c2O)CC1 (stereo partly drawn) [Compound 130, 1-(4-chloro-3-((cis-4-(dimethylamino)cyclohexyl)sulfonyl)-2-hydroxyphenyl)-3-(2-chlorocyclopent-2-en-1-yl)urea, trifluoroacetic acid salt] |
| ≤ 10 nM | CC1=CCCC1NC(=O)Nc1ccc(Cl)c(S(=O)(=O)[C@H]2C[C@H](CN(C)C)C2)c1O (stereo partly drawn) [Compound 131, 1-(4-chloro-3-(((1r,3r)-3-((dimethylamino)methyl)cyclobutyl)sulfonyl)-2-hydroxyphenyl)-3-(2-methylcyclopent-2-en-1-yl)urea, trifluoroacetic acid salt] |
| ≤ 10 nM | CN(C)C[C@H]1C[C@@H](S(=O)(=O)c2c(Cl)ccc(NC(=O)NC3CCC=C3Cl)c2O)C1 (stereo partly drawn) [Compound 132, 1-(4-chloro-3-((cis-3-((dimethylamino)methyl)cyclobutyl)sulfonyl)-2-hydroxyphenyl)-3-(2-chlorocyclopent-2-en-1-yl)urea, trifluoroacetic acid salt] |
| ≤ 10 nM | CC1=CCCC1NC(=O)Nc1ccc(Cl)c(S(=O)(=O)[C@H]2C[C@H](N(C)C)C2)c1O (stereo partly drawn) [Compound 133, 1-(4-chloro-3-((trans-3-(dimethylamino)cyclobutyl)sulfonyl)-2-hydroxyphenyl)-3-(2-methylcyclopent-2-en-1-yl)urea] |
| ≤ 10 nM | CN(C)[C@H]1C[C@H](S(=O)(=O)c2c(Cl)ccc(NC(=O)NC3CCC=C3Cl)c2O)C1 (stereo partly drawn) [Compound 134, 1-(4-chloro-3-((trans-3-(dimethylamino)cyclobutyl)sulfonyl)-2-hydroxyphenyl)-3-(2-chlorocyclopent-2-en-1-yl)urea] |
| ≤ 10 nM | CO[C@H]1C[C@@H](S(=O)(=O)c2c(Cl)ccc(NC(=O)NC3CCC=C3C)c2O)C1 (stereo partly drawn) [Compound 148, 1-(4-chloro-2-hydroxy-3-((cis-3-methoxycyclobutyl)sulfonyl)phenyl)-3-(2-methylcyclopent-2-en-1-yl)urea] |
| ≤ 10 nM | CO[C@H]1C[C@@H](S(=O)(=O)c2c(Cl)ccc(NC(=O)NC3CCC=C3Cl)c2O)C1 (stereo partly drawn) [Compound 149, 1-(4-chloro-2-hydroxy-3-((cis-3-methoxycyclobutyl)sulfonyl)phenyl)-3-(2-chlorocyclopent-2-en-1-yl)urea] |
